“Also recorded” adds a separate entry of the source.
Tests used:
HSV-1 (strain McIntyre) = experiment: Detection of specific HSV-1 antigen in HSV-1-infected PBMC (immunofluorescence); format: cell-based, human; details: specific antiserum from a chronically infected donor
Description: Synthesis of the viral antigen was inhibited by 60% in the presence of 100 nM LTB4 (FIG. 4). The results illustrated in FIG. 4 are representative of five (5) other experiments.
(§1) PBMC were infected with EBV and HSV-1 and treated or not with 100 nM of analogs of LTB4 such as 20-OH-LTB4, LTA3 methyl ester, 12(R)-HETE and 5(S), 15(S)-diHETE. After six days of culture, the presence of EBNA antigen (a consequence of EBV infection) was evaluated by the ACIF test, as described in Example I. Similarly, the presence of HSV-1 antigen in PBMC was evaluated by immunofluorescence using an antiserum obtained from a chronically infected donor as described above in section entitled “Detection of Specific HSV-1 Antigen”. […] The results illustrated in Table 1 are representative of three other experiments.

[1] = test system: murine CMV (Smith strain); experiment: CMV viral load in infected mice (plaque assay)
Description: Six week old BALB/c mice were infected by intravenous injection with 10^4 plaque forming units (PFU) of murine CMV (Smith strain). Mice were divided into two groups: the first group received a placebo while the second group was treated with 25 ng of LTB4, administered intravenously once a day starting on the day of infection. After 12 days of treatment, mice were sacrificed and the lungs and salivary glands harvested. The organs were homogenized, in 0.5 ml of culture medium, to liberate intracellular viral particles. After centrifugation, the cell free supernatants were tested for the presence of CMV particles by standard plaque assay technique. Briefly, serially diluted supernatants were added to a monolayer of mouse embryonic fibroblast cells (highly susceptible to CMV infection) for 1 hour at 37° C. after which the nonadsorbed virus were removed and the monolayer overlaid with 1.5% methylcellulose. After a 5-day incubation, the monolayers were fixed with formaldehyde and stained with violet crystal. The number of plaques, which represents areas of infection equivalent to one viral particle, were counted and the CMV titers in the lungs and salivary glands determined.

HIV-1 strain 89.6 = experiment: HIV ex vivo model, human tonsillar tissue, p24 release; format: cell-based; details: tonsil blocks, LTB4 0.01, 0.1 and 1 μM
From the text: An ex vivo model that retains the cellular organization found in normal human lymphoid tissue was used. The selected lymphoid tissues were tonsils. […] Such an ex vivo model is used to study HIV pathogenesis and potency of antiviral agents such as AZT (Zidovudine) by many laboratories.
Human tonsillar tissues from two different individuals were removed during routine tonsillectomy and were received within five hours of excision. The tonsils were washed thoroughly with medium supplemented with antibiotics and then sectioned into 2-3 mm blocks. These tissue blocks were placed in culture medium at the air-liquid interface on the top surface of collagen sponge gels and were pretreated for 10 min with the indicated concentrations of LTB4 (0.01, 0.1 and 1 μM). Next, HIV-1 particles (400 TCID50 of HIV-1 strain 89.6) were applied at the top of each tissue block. The next day, the culture medium was completely removed and replaced with fresh medium supplemented with a final concentration of LTB4 (0.01, 0.1 and 1 μM). This step is necessary in order to remove unadsorbed and uninternalized virus particles. Productive HIV-1 infection was assessed every 3 to 4 days by measuring p24 in the culture medium using a viral core p24 antigen enzyme-linked immunosorbent assay. […]

HSV-1 strain E-377 = experiment: HSV-1 infection in vivo, hairless mice
EBV = experiment: Detection of Epstein-Barr Nuclear Antigen (EBNA) in EBV-infected PBMC (ACIF test); format: cell-based, human; details: 100 nM LTB4, added days 0, 3, 6, 9; ten days of culture
Description: After ten days of culture, cells were harvested for determination of the presence of Epstein-Barr Nuclear Antigen (EBNA), a consequence of EBV infection. Preparation of cell smears, fixation and detection of EBNA by the anti-complement immunofluorescence (ACIF) test were carried out as described by Reedman B. M. and Klein G. (Int. J. Cancer, 1973, 11:499). Smears were prepared by spreading 50 μl of a concentrated suspension of washed cells (2×10^6/ml) on clean slides, air dried and fixed in cold acetone (−20° C.) during 10 minutes. Human serum (50 μl) from EBV seropositive donor was used as a source of complement. Slides were incubated at room temperature in a humid chamber during 45 minutes. Slides were then washed three times in phosphate buffer saline (PBS) and stained with 50 μl of fluorescein-5-isothiocyanate (FITC “Isomer I”)-conjugated goat IgG fraction anti-human complement C3 (Cappel Research Products, Durham, N.C.) during 60 minutes at room temperature in a humid chamber. Slides were washed in PBS (3 times), mounted in PBS:glycerol 1:1 and examined. Raji and U937 cells were used as positive and negative controls, respectively. The percentage of EBNA-positive cells was decreased by more than 55% with 30 nM LTB4, and by more than 70% with 100 nM LTB4 (FIG. 2). The results illustrated in FIG. 2 are representative of six (6) other experiments.
as §1

[2] = 25 ng LTB4 i.v. once a day, 12 days
[3] = LTB4 10 μg i.p. days 0, 1, 3, 5, 7, 9

## CCCCC/C=C\C[C@@H](O)/C=C/C=C/C=C\[C@@H](O)CCCC(=O)O [LTB4, 5S,12R-dihydroxy-6,8,10,14 (Z,E,E,Z)-eicosatetraenoic acid]
HSV-1 (strain McIntyre)
  inhibition of synthesis of HSV-1 antigen: 75%
[1]; [2]
  reduction in the CMV viral load in the lungs versus placebo: 77%
  reduction in the CMV viral load in the salivary glands versus placebo: 70%
[1]; infected mice
  CMV viral load versus placebo: reduced
HIV-1 strain 89.6
  inhibition of the replicative cycle of HIV-1 (p24 release): more than 75%
HSV-1 strain E-377; HSV-1-infected hairless mice, LTB4 i.p.
  course of skin lesions: regressed from day 8; also recorded: smaller and disappeared more rapidly
HSV-1 strain E-377; HSV-1-infected, LTB4 10 μg i.p.
  Survival at day 14: 100%
HSV-1 strain E-377; [3]
  Infection-associated symptoms score, Day 4: 0
  Infection-associated symptoms score, Day 6: 0
  Infection-associated symptoms score, Day 8: 0
  Infection-associated symptoms score, Day 10: 0
  Size of infected skin lesions, Day 4: ≤ 0.5 cm
  Size of infected skin lesions, Day 6: 1-3 cm
  Size of infected skin lesions, Day 8: 1-3 cm
  Size of infected skin lesions, Day 10: ≤ 0.2 cm
HSV-1 strain E-377; lesions developed from days 0 to 4
  lesions smaller than those of HSV-1-infected untreated Group 2: ~80%
HSV-1 strain E-377; throughout the experiment
  infection-associated symptoms and general status: posterior limb inflammation and skinniness were not observed
EBV
  decrease of percentage of EBNA-positive cells: more than 70%

Reference: US7473708B2, “Agents with leukotriene B4-like antiviral (enveloped RNA) activities” (priority 1996, dated 2009)
